Values after ≈ are worked out from the molar mass of the structure shown.
Tests used:
[1] = Aqueous solubility of compound in PBS buffer at pH 7.4 by precipitation based plate reader analysis; format: physicochemical
[2] = Metabolic stability in Sprague-Dawley rat liver microsomes assessed as parent compound remaining measured upto 60 mins in presence of NADPH by HPLC analysis; format: ADME, Microsome; conditions: read-out: Stability
[3] = target: T1, Type-1 angiotensin II receptor (Homo sapiens, UniProt P30556)
T1 sequence (P30556 whole entry): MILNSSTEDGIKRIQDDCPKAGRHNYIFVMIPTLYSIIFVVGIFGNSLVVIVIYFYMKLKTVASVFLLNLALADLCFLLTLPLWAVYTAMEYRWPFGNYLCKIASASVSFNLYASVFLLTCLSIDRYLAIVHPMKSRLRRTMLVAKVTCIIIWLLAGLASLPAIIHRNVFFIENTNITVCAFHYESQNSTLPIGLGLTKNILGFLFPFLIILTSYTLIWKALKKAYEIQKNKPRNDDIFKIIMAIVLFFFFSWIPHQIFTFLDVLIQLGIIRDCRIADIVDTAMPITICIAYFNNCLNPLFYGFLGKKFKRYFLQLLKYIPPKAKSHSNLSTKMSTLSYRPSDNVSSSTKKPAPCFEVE
Description: Antagonist activity at human AT1 receptor expressed in CHO-K1 cells co-expressing GNA14 assessed as inhibition of Val5-Angiotensin-II induced IP-1 accumulation incubated for 90 mins by HTRF assay

[4] = target: T2, Leukotriene B4 receptor 2 (Homo sapiens, UniProt Q9NPC1); test: Agonist activity at human BLT2 expressed in CHO-K1 cells overexpressing GNA14 assessed as induction of IP-1 accumulation incubated for 90 mins by HTRF assay; format: functional, cell-based
T2 sequence (Q9NPC1 whole entry): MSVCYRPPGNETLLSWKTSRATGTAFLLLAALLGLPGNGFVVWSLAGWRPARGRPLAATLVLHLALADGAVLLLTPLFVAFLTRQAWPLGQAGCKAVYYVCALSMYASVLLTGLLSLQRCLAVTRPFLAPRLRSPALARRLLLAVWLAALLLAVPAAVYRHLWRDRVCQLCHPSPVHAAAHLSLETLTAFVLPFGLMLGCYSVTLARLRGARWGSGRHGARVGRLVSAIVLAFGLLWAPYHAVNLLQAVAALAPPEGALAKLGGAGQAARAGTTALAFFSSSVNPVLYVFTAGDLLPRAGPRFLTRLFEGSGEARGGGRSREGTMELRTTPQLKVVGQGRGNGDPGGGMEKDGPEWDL

[5] = target: T2, Leukotriene B4 receptor 2; test: Displacement of FITC-labeled tracer from Lumi4 Tb-labeled BLT2 (unknown origin) expressed in CHO-K1 cells incubated for 1 hrs by Tag-lite displacement based HTRF assay; format: cell-based
[6] = target: T2, Leukotriene B4 receptor 2; test: Agonist activity at BLT2 (unknown origin); format: functional
[7] = target: T2, Leukotriene B4 receptor 2; test: Agonist activity at human BLT2 expressed in CHO-K1 cells overexpressing GNAi2 assessed as inhibition of forskolin-induced cAMP accumulation preincubated for 40 mins followed by forskolin addition and measured after 20 mins by HTRF assay; format: functional, cell-based
HepG2 = test: Cytotoxicity against human HepG2 cells assessed as effect on cell viability at 100 uM measured after 72 hrs by CellTiter-Glo assay; format: toxicity, cell-based; conditions: hepg2, 72 h
HEK-293T = test: Cytotoxicity against HEK293T cells assessed as effect on cell viability at 10 uM measured after 24 hrs by CellTiter-Glo assay; format: toxicity, cell-based; conditions: human
[8] = Cytotoxicity against human MRC9 cells assessed as effect on cell viability at 10 uM measured after 24 hrs by CellTiter-Glo assay; format: toxicity, cell-based; conditions: mrc9, 24 h
U2OS = test: Cytotoxicity against human U2OS cells assessed as effect on cell viability at 10 uM measured after 24 hrs by CellTiter-Glo assay; format: toxicity, cell-based
[9] = Cmax in male C57BL/6J mouse at 3 mg/kg, iv by LC-MS analysis; format: ADME, organism-based; conditions: in vivo
[10] = Cmax in male C57BL/6J mouse at 10 mg/kg, po by LC-MS analysis; format: ADME, organism-based; conditions: in vivo
[11] = Tmax in male C57BL/6J mouse at 10 mg/kg, po by LC-MS analysis; format: ADME, organism-based; conditions: in vivo
[12] = Half-life in male C57BL/6J mouse at 10 mg/kg, SC by LC-MS analysis; format: ADME, organism-based; conditions: in vivo
[13] = Half-life in male C57BL/6J mouse at 3 mg/kg, iv by LC-MS analysis; format: ADME, organism-based; conditions: in vivo
[14] = Half-life in male C57BL/6J mouse at 10 mg/kg, po by LC-MS analysis; format: ADME, organism-based; conditions: in vivo
[15] = AUC (0 to infinity) in male C57BL/6J mouse at 10 mg/kg, SC by LC-MS analysis; format: ADME, organism-based; conditions: in vivo
[16] = AUC (0 to infinity) in male C57BL/6J mouse at 3 mg/kg, iv by LC-MS analysis; format: ADME, organism-based; conditions: in vivo
[17] = AUC (0 to infinity) in male C57BL/6J mouse at 10 mg/kg, po by LC-MS analysis; format: ADME, organism-based; conditions: in vivo
[18] = Oral bioavailability in male C57BL/6J mouse at 10 mg/kg by LC-MS analysis; format: ADME, organism-based; conditions: in vivo
[19] = Toxicity in male C57BL/6J mouse assessed as effect on normal behavior at 10 mg/kg, SC; format: organism-based; conditions: in vivo
[20] = Toxicity in male C57BL/6J mouse assessed as effect on normal behavior at 3 mg/kg, iv; format: organism-based; conditions: in vivo
[21] = Toxicity in male C57BL/6J mouse assessed as effect on normal behavior at 10 mg/kg, po; format: organism-based; conditions: in vivo
[22] = Binding affinity to BLT1 (unknown origin); parameters: species or system Homo sapiens

## CCCCC(=O)N1CCC2(CC1)CCN(c1ccccc1-c1nnn[nH]1)C2
[1]
  solubility kinetic: ≥ 1000 µM
[2]
  remaining at 1 h: 99.8%
[3]
  IC50: 13.6 µM

## CCCCC1(C)C(=O)N(Cc2ccc(-c3ccccc3C(=O)O)cc2)c2ccccc21 (stereo unspecified)
[3]
  IC50: 58 µM

## CCCCC(=O)N1Cc2cc(-c3ccccc3-c3nnn[nH]3)ccc2C1C (stereo unspecified)
[4]
  EC50: 1.39 µM

## CCc1cnc(N2Cc3ccc(-c4ccccc4-c4nnn[nH]4)cc3C2)s1
[1]
  solubility kinetic: 250 µM (≈ 93.6 µg/mL)
[2]
  remaining at 1 h: 89%
[3]
  IC50: 79 µM

## CCCCC1=NC2(CCCC2)C(=O)N1Cc1ccc(-c2ccccc2-c2nnn[nH]2)cc1 [IRBESARTAN]
[5]
  IC50: ≥ 1.5 µM

## CCCCC[C@H](O)/C=C/C=C/C/C=C\CCCC(=O)O
[6]
  pEC50: 7.72
[7]
  EC50: 0.0014 µM

## CCCCC(=O)N1CCc2ccc(-c3ccccc3C(=O)O)cc2C1
[4]
  EC50: 18.4 µM

## CCc1nnc(N2Cc3ccc(-c4ccccc4-c4nnn[nH]4)cc3C2)o1
[1]
  solubility kinetic: 750 µM (≈ 270 µg/mL)
[2]
  remaining at 1 h: 101%
[3]
  IC50: 15.8 µM

## CCCCC(=O)N1Cc2ccc(-c3ccccc3-c3nnn[nH]3)cc2C1
[3]
  IC50: > 400 µM

## CCCCC(=O)N1CC2(C1)CN(c1ccccc1-c1nnn[nH]1)C2
HepG2
  Activity: Non-toxic
HEK-293T
  Activity: Non-toxic
[8]
  Activity: Non-toxic
U2OS
  Activity: Non-toxic
[1]
  solubility kinetic: ≥ 1000 µM
[2]
  remaining at 1 h: 97.5%
[9]
  Cmax: 3.29 µg/mL
[10]
  Cmax: 1.99 µg/mL
[11]
  Tmax: 15 min
[12]
  half-life: 62 min
[13]
  half-life: 19 min
[14]
  half-life: 154 min
[15]
  AUC(0-inf): 4.08 µg·h/mL
[16]
  AUC(0-inf): 1.02 µg·h/mL
[17]
  AUC(0-inf): 1.73 µg·h/mL
[18]
  bioavailability: 51%
[19]
  Activity: Non-toxic
[20]
  Activity: Non-toxic
[21]
  Activity: Non-toxic

## CCCCC/C=C\C[C@@H](O)/C=C/C=C/C=C\[C@@H](O)CCCC(=O)O [LEUKOTRIENE_B4]
[22]
  pKd: 8.5

## CCCCC(=O)N(Cc1ccc(-c2ccccc2C(=O)O)cc1)c1ccccc1
[5]
  IC50: 0.063 µM
HepG2
  Activity: Non-toxic
[1]
  solubility kinetic: 250 µM (≈ 96.9 µg/mL)
[2]
  remaining at 1 h: 66%
[3]
  IC50: 53 µM
